Assay results reported in patent US8791132B2, “Compounds and methods for treatment of hypertension” (Medivation Technologies, Inc., priority 2011, dated 2014).
Read-outs that look alike come from different tables or passages of the source.

Experiments:
[1] = target: T1, human recombinant adrenergic α2A receptor (Homo sapiens, UniProt P08913); experiment: Radioligand binding, adrenergic α2A ([3H]MK-912)
T1 construct: expressed in transfected cells; host or cells: insect Sf9 cells
T1 sequence (P08913 1-465): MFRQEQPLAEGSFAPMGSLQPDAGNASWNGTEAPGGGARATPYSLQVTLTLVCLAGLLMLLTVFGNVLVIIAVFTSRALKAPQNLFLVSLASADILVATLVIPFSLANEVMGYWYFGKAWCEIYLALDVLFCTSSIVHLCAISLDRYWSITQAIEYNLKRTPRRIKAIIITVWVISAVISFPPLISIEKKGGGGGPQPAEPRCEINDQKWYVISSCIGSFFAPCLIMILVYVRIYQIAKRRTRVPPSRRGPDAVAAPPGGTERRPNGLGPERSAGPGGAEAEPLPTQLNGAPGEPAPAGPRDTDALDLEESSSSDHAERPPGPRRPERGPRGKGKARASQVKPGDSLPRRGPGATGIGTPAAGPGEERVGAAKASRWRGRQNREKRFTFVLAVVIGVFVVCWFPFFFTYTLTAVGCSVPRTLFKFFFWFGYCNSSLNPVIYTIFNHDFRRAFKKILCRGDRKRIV
Outline: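 Receptor expressed in Sf9 cells, in 50 mM Tris-HCl pH 7.4, 12.5 mM MgCl2, 2 mM EDTA; compounds incubated with 1 nM [3H]MK-912 for 60 min at 25 °C.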

[2] = target: T2, human recombinant adrenergic α2B receptor (Homo sapiens, UniProt P18089); experiment: Radioligand binding, adrenergic α2B ([3H]Rauwolscine)
T2 construct: expressed in transfected cells; host or cells: CHO-K1
T2 sequence (P18089 1-450): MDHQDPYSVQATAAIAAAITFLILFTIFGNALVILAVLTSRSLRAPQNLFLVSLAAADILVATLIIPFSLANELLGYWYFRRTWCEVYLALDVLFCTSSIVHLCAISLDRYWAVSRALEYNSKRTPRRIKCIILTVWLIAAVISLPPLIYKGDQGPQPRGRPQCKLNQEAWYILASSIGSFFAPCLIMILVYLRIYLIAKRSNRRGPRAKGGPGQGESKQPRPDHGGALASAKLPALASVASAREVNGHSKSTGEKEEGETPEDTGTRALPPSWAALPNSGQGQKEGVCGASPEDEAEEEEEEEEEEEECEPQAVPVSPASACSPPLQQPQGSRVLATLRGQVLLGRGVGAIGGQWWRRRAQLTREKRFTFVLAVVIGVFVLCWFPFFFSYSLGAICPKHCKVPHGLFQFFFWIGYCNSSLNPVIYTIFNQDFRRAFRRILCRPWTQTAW
Outline: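 Assay used CHO-K1-expressed human α2B receptor in Tris-HCl pH 7.4 buffer with MgCl2, EDTA and BSA; 60 min incubation at 25 °C.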

[3] = target: T3, rat adrenergic α1B receptor (Rattus norvegicus, UniProt P15823); experiment: Radioligand binding, adrenergic α1B ([3H]Prazosin)
T3 construct: rat adrenergic α1B receptor obtained from Wistar Rat liver; from tissue; host or cells: Wistar rat liver
T3 sequence (P15823 1-515): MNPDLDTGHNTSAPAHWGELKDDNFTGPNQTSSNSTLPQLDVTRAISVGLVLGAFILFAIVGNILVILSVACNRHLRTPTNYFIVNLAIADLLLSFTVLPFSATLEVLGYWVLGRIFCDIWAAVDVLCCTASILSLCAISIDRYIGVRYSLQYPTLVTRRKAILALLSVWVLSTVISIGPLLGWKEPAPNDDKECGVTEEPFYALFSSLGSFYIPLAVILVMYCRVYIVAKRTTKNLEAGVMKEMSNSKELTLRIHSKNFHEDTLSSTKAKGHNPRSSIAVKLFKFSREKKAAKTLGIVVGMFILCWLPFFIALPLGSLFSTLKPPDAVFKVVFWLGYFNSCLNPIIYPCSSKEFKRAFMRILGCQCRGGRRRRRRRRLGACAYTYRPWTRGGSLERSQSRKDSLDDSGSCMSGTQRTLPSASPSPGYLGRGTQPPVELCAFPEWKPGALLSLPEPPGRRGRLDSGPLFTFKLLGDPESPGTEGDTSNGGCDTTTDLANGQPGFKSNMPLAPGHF
Outline: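 Rat α1B receptor from Wistar rat liver was incubated with 0.25 nM [3H]prazosin for 60 min at 25 °C in 50 mM Tris-HCl, pH 7.4, 0.5 mM EDTA. Non-specific binding was defined with 10 μM phentolamine. Bound radioligand was measured by filtration and counting, reported as percent inhibition of specific binding.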

[4] = target: T4, human recombinant adrenergic α1D receptor (Homo sapiens, UniProt P25100); experiment: Radioligand binding, adrenergic α1D ([3H]Prazosin)
T4 construct: expressed in transfected cells; host or cells: HEK-293
T4 sequence (P25100 1-572): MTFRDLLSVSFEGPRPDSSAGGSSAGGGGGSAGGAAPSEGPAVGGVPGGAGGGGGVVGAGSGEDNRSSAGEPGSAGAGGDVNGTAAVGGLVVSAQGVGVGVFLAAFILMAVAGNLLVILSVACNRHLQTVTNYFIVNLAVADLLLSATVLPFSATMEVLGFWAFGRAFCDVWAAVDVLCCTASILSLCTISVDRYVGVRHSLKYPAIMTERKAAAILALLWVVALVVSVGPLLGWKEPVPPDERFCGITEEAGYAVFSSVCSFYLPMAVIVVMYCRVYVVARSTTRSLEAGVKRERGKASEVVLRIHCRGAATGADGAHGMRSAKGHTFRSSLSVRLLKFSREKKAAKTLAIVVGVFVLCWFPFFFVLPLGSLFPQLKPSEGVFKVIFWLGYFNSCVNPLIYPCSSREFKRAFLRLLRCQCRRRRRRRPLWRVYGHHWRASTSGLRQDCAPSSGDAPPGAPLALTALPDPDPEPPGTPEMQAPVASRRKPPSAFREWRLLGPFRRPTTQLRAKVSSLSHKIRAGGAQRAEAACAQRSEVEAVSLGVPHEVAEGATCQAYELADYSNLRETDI
Method: Compounds were incubated with 0.6 nM [3H]Prazosin for 60 min at 25° C. Non-specific binding was estimated in the presence of 10 μM phentolamine. Receptor proteins were filtered and washed, the filters were then counted to determine [3H]Prazosin specifically bound. […] Biochemical assay results are presented as the percent inhibition of specific binding in Table B1.

[5] = 0.1 μM compound, read-out: Percentage inhibition of ligand binding, Adrenergic α2A
[6] = 0.1 μM compound, read-out: Percentage inhibition of ligand binding, Adrenergic α2B
[7] = 0.1 μM compound, read-out: Percentage inhibition of ligand binding, Adrenergic α1B
[8] = 0.1 μM compound, read-out: Percentage inhibition of ligand binding, Adrenergic α1D
[9] = read-out: Percentage inhibition of ligand binding, Adrenergic α2A (0.1 μM), compound at 0.1 μM, [3H]MK-912, repeat datapoints each shown
[10] = read-out: Percentage inhibition of ligand binding, Adrenergic α2B (0.1 μM), compound at 0.1 μM, [3H]Rauwolscine, repeat datapoints each shown
[11] = read-out: Percentage inhibition of ligand binding, Adrenergic α1B (0.1 μM), compound at 0.1 μM, [3H]Prazosin, repeat datapoints each shown
[12] = read-out: Percentage inhibition of ligand binding, Adrenergic α1D (0.1 μM), compound at 0.1 μM, [3H]Prazosin, repeat datapoints each shown

| SMILES | inhibition at 0.1 µM [1, 5] [%] | inhibition at 0.1 µM [2, 6] [%] | inhibition at 0.1 µM [3, 7] [%] | inhibition at 0.1 µM [4, 8] [%] | other results |
| --- | --- | --- | --- | --- | --- |
| C/C(=C\n1c2c(c3cc(C)ccc31)CCN(C)CC2)c1cccnc1 [compound 245] | 65 | 96 | 69 | 35 |  |
| C/C(=C/n1c2c(c3cc(C)ccc31)CN(C)CC2)c1ccc2ccccc2c1 [compound 271] | 97 | 71 | 65 | 83 |  |
| Cc1ccc(CCn2c3c(c4cc(Cl)c(Cl)cc42)CN(C)CC3)cn1 [compound 322] | 58 | 49 | 59 | 22 |  |
| Cc1ccc(CCn2c3c(c4ccc(C(F)(F)F)cc42)CN(C)CC3)cn1 [compound 119] |  |  |  |  | inhibition at 0.1 µM [1, 9]: 14%; inhibition at 0.1 µM [2, 10]: 60%; inhibition at 0.1 µM [3, 11]: 14%; inhibition at 0.1 µM [4, 12]: -6% |
| C=C(n1ccnc1)n1c2c(c3cc(C)ccc31)CN(C)CC2 [compound 118, 5-(1-imidazol-1-yl-vinyl)-2,8-dimethyl-2,3,4,5-tetrahydro-1H-pyrido[4,3-b]indole] |  |  |  |  | inhibition at 0.1 µM [1, 9]: 19%; inhibition at 0.1 µM [2, 10]: 60%; inhibition at 0.1 µM [3, 11]: 35%; inhibition at 0.1 µM [4, 12]: 7% |
| CNC(=O)c1ccc(/C(C)=C/n2c3c(c4cc(C)ccc42)CN(C)CC3)cn1 [compound 122] |  |  |  |  | inhibition at 0.1 µM [1, 9]: 13%; inhibition at 0.1 µM [2, 10]: 96%; inhibition at 0.1 µM [3, 11]: 51%; inhibition at 0.1 µM [4, 12]: 84% |
| C/C(=C\n1c2c(c3cc(C)ccc31)CN(C)CC2)c1ccc2c(ccn2C)c1 [compound 283] | 90 | 89 | 63 | 46 |  |
| C/C(=C/n1c2c(c3cc(C)ccc31)CN(C)CC2)c1cccc(F)c1 [compound 236] |  |  |  |  | inhibition at 0.1 µM [1, 9]: 99%; inhibition at 0.1 µM [2, 10]: 98%; inhibition at 0.1 µM [3, 11]: 94%; inhibition at 0.1 µM [4, 12]: 85% |
| C/C(=C/n1c2c(c3cc(C)ccc31)CN(C)CC2)c1cc(C)cs1 [compound 291] | 102 | 105 | 88 | 85 |  |
| COc1cc(/C(C)=C/n2c3c(c4cc(C)ccc42)CN(C)CC3)ccn1 [compound 269] | 61 | 83 | 36 | 44 |  |
| CN1CCc2c(c3cccc(Cl)c3n2CC(C)(O)c2ccncc2)C1 (stereo not drawn) [compound 32] |  |  |  |  | inhibition at 0.1 µM ([1]; compound at 0.1 μM, [3H]MK-912, repeat assays, each datapoint shown, read-out: Percentage inhibition of ligand binding, Adrenergic α2A): 28%; inhibition at 0.1 µM ([2]; compound at 0.1 μM, [3H]Rauwolscine, repeat assays, each datapoint shown, read-out: Percentage inhibition of ligand binding, Adrenergic α2B): 86%; inhibition at 0.1 µM ([3]; compound at 0.1 μM, [3H]Prazosin, repeat assays, each datapoint shown, read-out: Percentage inhibition of ligand binding, Adrenergic α1B): 12%; inhibition at 0.1 µM ([4]; compound at 0.1 μM, [3H]Prazosin, repeat assays, each datapoint shown, read-out: Percentage inhibition of ligand binding, Adrenergic α1D): 7% |
| C/C(=C\n1c2c(c3cc(C)ccc31)CN(C)CC2)c1ccc2[nH]cnc2c1 [compound 282] | 75 | 101 | 33 | 30 |  |
| C/C(=C/n1c2c(c3cc(Cl)ccc31)CN(C)CC2)c1cc(F)c(F)cc1Cl [compound 252] | 66 | 52 | 36 | 13 |  |
| CC(Cn1c2c(c3ccccc31)CN(C)CC2)c1ccc(F)cc1 (single isomer, unassigned) [272a] |  |  | 27 |  | Percentage inhibition of ligand binding, Adrenergic α2A ([1]; 0.1 μM compound, 0.1 µM): 33%; Percentage inhibition of ligand binding, Adrenergic α2B ([2]; 0.1 μM compound): −10%; Percentage inhibition of ligand binding, Adrenergic α1D ([4]; 0.1 μM compound, 0.1 µM): 12% |
| Cc1ccc(C#Cn2c3c(c4cc(Cl)ccc42)C2CCC(C3)N2C)cn1 (stereo not drawn) [compound 95] |  |  |  |  | inhibition at 0.1 µM [1, 9]: 9%; inhibition at 0.1 µM [2, 10]: 105%; inhibition at 0.1 µM [3, 11]: 52%; inhibition at 0.1 µM [4, 12]: 29% |

More lines, main results first:

| inhibition at 0.1 µM [1, 5] [%] | inhibition at 0.1 µM [2, 6] [%] | inhibition at 0.1 µM [3, 7] [%] | inhibition at 0.1 µM [4, 8] [%] | SMILES | other results |
| --- | --- | --- | --- | --- | --- |
| 67 | 70 | 50 | 30 | C/C(=C\c1ccccc1)n1c2c(c3cc(C)ccc31)CN(C)CC2 [compound 265] |  |
| 76 | 99 | 78 | 42 | C/C(=C\n1c2c(c3cc(Cl)ccc31)CCN(C)CC2)c1cccnc1 [compound 244] |  |
| -5 | 35 | 1 | 8 | CN1CCc2c(c3cccnc3n2CCc2ccc(C(F)(F)F)nc2)C1 [II-103, 6-methyl-9-(2-(6-(trifluoromethyl)pyridin-3-yl)ethyl)-6,7,8,9-tetrahydro-5H-pyrrolo[2,3-b:4,5-c′]dipyridine] |  |
| 82 | 98 | 71 | 53 | C/C(=C\n1c2c(c3cc(C)ccc31)CN(C)CC2)c1ccccn1 [compound 259] |  |
| 50 | 98 | 53 | 37 | COc1ccc(C#Cn2c3c(c4cc(Cl)ccc42)CCN(C)CC3)cc1F [compound 242] |  |
| 14 | -15 | -7 | -9 | Cc1ccc(CCn2c3c(c4c(C)ccc(C)c42)CN(C)CC3)cn1 [II-18] |  |
